Experimental data from PubChem BioAssay (NCI).
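1) Cells in 96-well plates. 2) Compound, 48 h, 5 concentrations. 3) Linear interpolation between surrounding doses. 4) Unreached endpoint = highest concentration. Here, GI50 denotes the concentration required for 50% inhibition of growth. At the TGI there is no net growth.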

Legend:
Assay in all cases: NCI anticancer screen, dose series, 48 h
T-47D breast = test system: T-47D breast
SR leukemia = test system: SR leukemia
CCRF-CEM leukemia = test system: CCRF-CEM leukemia
SNB-19 CNS = test system: SNB-19 CNS
NCI-H522 lung = test system: NCI-H522 lung
NCI/ADR-RES ovarian = test system: NCI/ADR-RES ovarian
COLO 205 colon = test system: COLO 205 colon
SW-620 colon = test system: SW-620 colon
ACHN renal = test system: ACHN renal
MOLT-4 leukemia = test system: MOLT-4 leukemia
U251 CNS = test system: U251 CNS
NCI-H460 lung = test system: NCI-H460 lung
NCI-H226 lung = test system: NCI-H226 lung
MDA-MB-435 = test system: MDA-MB-435
UO-31 renal = test system: UO-31 renal
786-0 renal = test system: 786-0 renal
SK-OV-3 ovarian = test system: SK-OV-3 ovarian
BT-549 breast = test system: BT-549 breast
HCT-116 colon = test system: HCT-116 colon
UACC-257 melanoma = test system: UACC-257 melanoma
RPMI-8226 leukemia = test system: RPMI-8226 leukemia
OVCAR-5 ovarian = test system: OVCAR-5 ovarian
KM12 colon = test system: KM12 colon
SNB-75 CNS = test system: SNB-75 CNS
PC-3 prostate = test system: PC-3 prostate
DU-145 prostate = test system: DU-145 prostate
SF-295 CNS = test system: SF-295 CNS
HCC-2998 colon = test system: HCC-2998 colon
NCI-H23 lung = test system: NCI-H23 lung

**Q.** `CCN(CC)c1ccc(/C=N/NC(=O)Cc2ccc(Nc3ccnc(C(F)(F)F)c3)cc2)c(O)c1` was tested. Which GI50 (T-47D breast) did it give?
**A.** The GI50 was 0.517 µM.

**Q.** What about the TGI (T-47D breast) of the same compound?
**A.** Its TGI is greater than 25.1 µM.

**Q.** What about the GI50 (SR leukemia) of the same compound?
**A.** The GI50 was 0.285 µM.

**Q.** And the TGI (SR leukemia)?
**A.** Its TGI is greater than 19.9 µM.

**Q.** What about the GI50 (CCRF-CEM leukemia) of the same compound?
**A.** Its GI50 is 0.256 µM.

**Q.** And the TGI (CCRF-CEM leukemia)?
**A.** Its TGI is greater than 100 µM.

**Q.** What about the GI50 (SNB-19 CNS) of the same compound?
**A.** The GI50 was 0.588 µM.

**Q.** And the TGI (SNB-19 CNS)?
**A.** The TGI was greater than 26.6 µM.

**Q.** What about the GI50 (NCI-H522 lung) of the same compound?
**A.** The GI50 was 1.27 µM.

**Q.** And the TGI (NCI-H522 lung)?
**A.** Its TGI is greater than 100 µM.

**Q.** What about the GI50 (NCI/ADR-RES ovarian) of the same compound?
**A.** Its GI50 is 1.19 µM.

**Q.** And the TGI (NCI/ADR-RES ovarian)?
**A.** Its TGI is greater than 100 µM.

**Q.** And the GI50 (COLO 205 colon)?
**A.** The GI50 was 1.24 µM.

**Q.** And the TGI (COLO 205 colon)?
**A.** Its TGI is greater than 100 µM.

**Q.** What about the GI50 (SW-620 colon) of the same compound?
**A.** The GI50 was 0.729 µM.

**Q.** And the TGI (SW-620 colon)?
**A.** Its TGI is greater than 100 µM.

**Q.** And the GI50 (ACHN renal)?
**A.** Its GI50 is 0.399 µM.

**Q.** What about the TGI (ACHN renal) of the same compound?
**A.** Its TGI is greater than 26.9 µM.

**Q.** And the GI50 (MOLT-4 leukemia)?
**A.** Its GI50 is 0.37 µM.

**Q.** And the TGI (MOLT-4 leukemia)?
**A.** The TGI was greater than 100 µM.

**Q.** What about the GI50 (U251 CNS) of the same compound?
**A.** The GI50 was 0.586 µM.

**Q.** What about the TGI (U251 CNS) of the same compound?
**A.** The TGI was greater than 100 µM.

**Q.** What about the GI50 (NCI-H460 lung) of the same compound?
**A.** Its GI50 is 0.351 µM.

**Q.** What about the TGI (NCI-H460 lung) of the same compound?
**A.** Its TGI is greater than 39.7 µM.

**Q.** And the GI50 (NCI-H226 lung)?
**A.** The GI50 was 0.699 µM.

**Q.** What about the TGI (NCI-H226 lung) of the same compound?
**A.** Its TGI is greater than 23.5 µM.

**Q.** And the GI50 (MDA-MB-435)?
**A.** Its GI50 is 1.29 µM.

**Q.** And the TGI (MDA-MB-435)?
**A.** Its TGI is greater than 100 µM.

**Q.** And the GI50 (UO-31 renal)?
**A.** The GI50 was 0.482 µM.

**Q.** What about the TGI (UO-31 renal) of the same compound?
**A.** Its TGI is greater than 100 µM.

**Q.** What about the GI50 (786-0 renal) of the same compound?
**A.** Its GI50 is 0.626 µM.

**Q.** What about the TGI (786-0 renal) of the same compound?
**A.** The TGI was greater than 100 µM.

**Q.** What about the GI50 (SK-OV-3 ovarian) of the same compound?
**A.** Its GI50 is 0.359 µM.

**Q.** And the TGI (SK-OV-3 ovarian)?
**A.** Its TGI is greater than 100 µM.

**Q.** And the GI50 (BT-549 breast)?
**A.** Its GI50 is 0.965 µM.

**Q.** What about the TGI (BT-549 breast) of the same compound?
**A.** Its TGI is greater than 29.2 µM.

**Q.** What about the GI50 (HCT-116 colon) of the same compound?
**A.** The GI50 was 0.46 µM.

**Q.** What about the TGI (HCT-116 colon) of the same compound?
**A.** Its TGI is greater than 100 µM.

**Q.** And the GI50 (UACC-257 melanoma)?
**A.** The GI50 was 1.82 µM.

**Q.** And the TGI (UACC-257 melanoma)?
**A.** The TGI was greater than 29.2 µM.

**Q.** And the GI50 (RPMI-8226 leukemia)?
**A.** Its GI50 is 0.521 µM.

**Q.** And the TGI (RPMI-8226 leukemia)?
**A.** The TGI was 54.2 µM.

**Q.** And the GI50 (OVCAR-5 ovarian)?
**A.** The GI50 was 2.42 µM.

**Q.** And the TGI (OVCAR-5 ovarian)?
**A.** Its TGI is greater than 100 µM.

**Q.** What about the GI50 (KM12 colon) of the same compound?
**A.** The GI50 was 0.826 µM.

**Q.** What about the TGI (KM12 colon) of the same compound?
**A.** Its TGI is greater than 100 µM.

**Q.** And the GI50 (SNB-75 CNS)?
**A.** The GI50 was 2.12 µM.

**Q.** And the TGI (SNB-75 CNS)?
**A.** The TGI was greater than 61.1 µM.

**Q.** And the GI50 (PC-3 prostate)?
**A.** Its GI50 is 1.85 µM.

**Q.** And the TGI (PC-3 prostate)?
**A.** Its TGI is greater than 100 µM.

**Q.** What about the GI50 (DU-145 prostate) of the same compound?
**A.** Its GI50 is 0.828 µM.

**Q.** What about the TGI (DU-145 prostate) of the same compound?
**A.** Its TGI is greater than 100 µM.

**Q.** And the GI50 (SF-295 CNS)?
**A.** The GI50 was 0.713 µM.

**Q.** What about the TGI (SF-295 CNS) of the same compound?
**A.** The TGI was greater than 60 µM.

**Q.** And the GI50 (HCC-2998 colon)?
**A.** Its GI50 is 1.17 µM.

**Q.** What about the TGI (HCC-2998 colon) of the same compound?
**A.** The TGI was greater than 100 µM.

**Q.** What about the GI50 (NCI-H23 lung) of the same compound?
**A.** The GI50 was 1.34 µM.

**Q.** And the TGI (NCI-H23 lung)?
**A.** The TGI was greater than 100 µM.
